*1 amine or outer side, *2 acyl side, *3 side chain or, on linkers, in order; H or OH if unused. Where a SMILES comes first, the peptide text is derived from it. Side-chain parts run from the residue outwards. The star is where a group is joined. C20 diacid = O=C(O)CCCCCCCCCCCCCCCCCCC(=O)*; C18 diacid = O=C(O)CCCCCCCCCCCCCCCCC(=O)*; γGlu = O=C(O)[C@H](CCC(=O)[*:2])N[*:1]; Trx = NC[C@H]1CC[C@H](C(=O)O)CC1; AEEA = NCCOCCOCC(=O)O
Test: in vivo
Details: Göttingen, minipig, iv
Procedure: (§1) The mini-pigs had two central venous catheters inserted which were used for intra venous (i.v.) dosing and bloodsampling. Compound was dissolved in 50 mM K2HPO4, 0.05% tween 80, pH=8.0 to a concentration of 180 nmol/ml. The pigs were dosed with 6 nmol compound/kg body weight. […] The blood samples were collected into test tubes containing EDTA buffer for stabilization and kept on ice for max. 20 minutes before centrifugation. The centrifugation procedure to separate plasma was; 4° C., 3000 rpm for 10 minutes. Plasma were collected and immediately transferred to Micronic tubes stored at −20° C. until assayed.
An additional mini-pig PK assay was used for measuring PK of the compounds of the invention. […] The animals had two central venous catheters inserted which were used for intra venous (i.v.) dosing and blood sampling. Compounds were dissolved in 10 mM Na2HPO4, 150 mM NaCl, 0.01% tween 80, pH=4.0 to concentrations in the range of 40 nmol/ml to 200 nmol/ml. The mini-pigs were dosed i.v. with 10 nmol compound/kg body weight, occasionally other doses such as 4 nmol/kg, 30 nmol/kg or 50 nmol/kg were administered. Each compound was dosed to 3 or 4 mini-pigs, and two compounds may be given simultaneously to the same animal. Blood were sampled pre-dose and 12 times during the first 10 hours post-dose. Blood were furthermore sampled once daily until 13 days post dosing. The blood samples were collected into test tubes containing EDTA buffer, trasylol and Val-Pyr for stabilization and kept on ice for max. 20 minutes. Samples were centrifuged at 4° C., 2000G for 10 minutes to separate plasma. Plasma were collected and immediately transferred to Micronic tubes stored at −20° C. until assayed.
Plasma samples were analysed by LC-MS on an LTQ-Orbitrap (ThermoFisher Scientific, Bremen) to which Accela HPLC pumps and an autosampler were connected (both from ThermoFisher). […] HPLC was performed on a Jupiter Proteo column (4μ) 90A (50×2.0 mm ID). […] The flow rate was 0.3 ml/min. For analysis of plasma samples, 30 μl plasma was precipitated with 90 μl ethanol. […] The heptane phase was removed after 5 min and the remaining solution was analysed by LC-MS as described above. For construction of plasma standards, compound was spiked to plasma (minipig) at the following concentrations: 1 nM, 2 nM, 5 nM, 10 nM, 20 nM, 50 nM, 100 nM, 200 nM. The plasma standards were treated as the samples. The lower limit of quantification was estimated to 2 nM.
Non-compartmental analysis (NCA): Plasma concentration-time profiles were analyzed by non-compartmental pharmacokinetics analysis (NCA) using WinNonlin Professional 5.0 (Pharsight Inc., Mountain View, Calif., USA). NCA was performed using the individual plasma concentration-time profiles from each animal.
For determination of plasma concentration of the PYY and PP peptide derivative or analogues thereof the following Methods 1-4 were used.
as §1, with “bloodsampling. The compound” for “bloodsampling. Compound”, “to an appropriate” for “to a”, “concentration (e.g. 25-500 nmol/mL).” for “concentration of 180 nmol/ml.”, “dosed intravenously (i.v.) or subcutaneously (s.c.)” for “dosed”, “with between 1 and 30” for “with 6”, “buffer (with Aprotinin 15000 KIE/mL and Val-Pyr 0.30 mM)” for “buffer”
An additional mini-pig PK assay was used for measuring PK of the compounds of the invention. […] The animals had two central venous catheters inserted which were used for intra venous (i.v.) dosing and blood sampling.

CC[C@H](C)[C@H](NC(=O)[C@H](Cc1ccc(O)cc1)NC(=O)[C@H](CCCNC(=N)N)NC(=O)[C@H](CCCCNC(=O)COCCOCCNC(=O)COCCOCCNC(=O)CC[C@H](NC(=O)CCCCCCCCCCCCCCCCC(=O)O)C(=O)O)NC(=O)[C@H](CC(C)C)NC(=O)[C@H](CC(=O)O)NC(=O)[C@H](C)NC(=O)[C@H](C)NC(=O)[C@H](Cc1ccc(O)cc1)NC(=O)[C@H](CCC(N)=O)NC(=O)[C@H](C)NC(=O)[C@H](CC(C)C)NC(=O)[C@H](CCC(N)=O)NC(=O)[C@H](CCC(=O)O)NC(=O)[C@@H]1CCCN1C(=O)[C@@H](NC(=O)[C@H](C)NC(=O)[C@H](CC(N)=O)NC(=O)[C@H](CC(=O)O)NC(=O)CNC(=O)[C@@H]1CCCN1C(=O)[C@H](Cc1ccc(O)cc1)NC(=O)[C@@H](NC(=O)[C@@H]1CCCN1C(=O)[C@H](CCC(=O)O)NC(=O)[C@H](CC(C)C)NC(=O)[C@@H]1CCCN1)C(C)C)[C@@H](C)O)C(=O)N[C@@H](CC(N)=O)C(=O)N[C@@H](CC(C)C)C(=O)N[C@@H](CC(C)C)C(=O)N[C@H](C(=O)N[C@@H](CCCNC(=N)N)C(=O)N1CCC[C@H]1C(=O)N[C@@H](CCCNC(=N)N)C(=O)N[C@@H](Cc1ccc(O)cc1)C(N)=O)[C@@H](C)O [SEQ ID NO: 49, N-epsilon25-[2-(2-{2-[2-(2-{2-[(S)-4-Carboxy-4-(17-carboxyheptadecanoylamino)butyrylamino]ethoxy}ethoxy)acetylamino]-ethoxy}ethoxy)acetyl][Leu17,Lys25,Leu30]hPP2-36] (H-PLEPVYPGDNATPEQLAQYAADLK([AEEA-AEEA-γGlu-C18 diacid])RYINLLTRPRY-NH2)
half-life (10 nmol/kg): 88 h

CC[C@H](C)[C@H](NC(=O)[C@H](Cc1ccc(O)cc1)NC(=O)[C@H](CCCNC(=N)N)NC(=O)[C@H](CCCNC(=N)N)NC(=O)[C@H](CC(C)C)NC(=O)[C@H](CC(=O)O)NC(=O)[C@H](C)NC(=O)[C@H](C)NC(=O)[C@H](Cc1ccc(O)cc1)NC(=O)[C@H](CCC(N)=O)NC(=O)[C@H](C)NC(=O)[C@H](CC(C)C)NC(=O)[C@H](CCC(N)=O)NC(=O)[C@H](CCCCNC(=O)COCCOCCNC(=O)COCCOCCNC(=O)CC[C@H](NC(=O)[C@H]1CC[C@H](CNC(=O)CCCCCCCCCCCCCCCCCCC(=O)O)CC1)C(=O)O)NC(=O)[C@@H]1CCCN1C(=O)[C@@H](NC(=O)[C@H](C)NC(=O)[C@H](CC(N)=O)NC(=O)[C@H](CC(=O)O)NC(=O)CNC(=O)[C@@H]1CCCN1C(=O)[C@H](Cc1ccc(O)cc1)NC(=O)[C@@H](NC(=O)[C@@H]1CCCN1C(=O)[C@H](CCC(=O)O)NC(=O)[C@H](CC(C)C)NC(=O)[C@@H]1CCCN1C(=O)[C@H](C)N)C(C)C)[C@@H](C)O)C(=O)N[C@@H](CC(N)=O)C(=O)N[C@@H](CC(C)C)C(=O)N[C@@H](CC(C)C)C(=O)N[C@H](C(=O)N[C@@H](CCCNC(=N)N)C(=O)N1CCC[C@H]1C(=O)N[C@@H](CCCNC(=N)N)C(=O)N[C@@H](Cc1ccc(O)cc1)C(N)=O)[C@@H](C)O [SEQ ID NO: 72, N-epsilon15-[2-(2-{2-[2-(2-{2-[(S)-4-Carboxy-4-({trans-4-[(19-carboxynonadecanoylamino)methyl]cyclohexanecarbonyl}amino)butyrylamino]-ethoxy}ethoxy)acetylamino]ethoxy}ethoxy)acetyl][Leu17,Lys15,Leu30]hPP1-36] (H-APLEPVYPGDNATPK([AEEA-AEEA-γGlu-Trx-C20 diacid])QLAQYAADLRRYINLLTRPRY-NH2)
half-life (in vivo, 8 nmol/kg): 14 h

CC[C@H](C)[C@H](NC(=O)[C@H](Cc1ccc(O)cc1)NC(=O)[C@H](CCCNC(=N)N)NC(=O)[C@H](CCCNC(=N)N)NC(=O)[C@H](CC(C)C)NC(=O)[C@H](CC(=O)O)NC(=O)[C@H](C)NC(=O)[C@H](C)NC(=O)[C@H](Cc1ccc(O)cc1)NC(=O)[C@H](CCC(N)=O)NC(=O)[C@H](C)NC(=O)[C@H](CC(C)C)NC(=O)[C@H](CCC(N)=O)NC(=O)[C@H](CCC(=O)O)NC(=O)[C@@H]1CCCN1C(=O)[C@@H](NC(=O)[C@H](C)NC(=O)[C@H](CC(N)=O)NC(=O)[C@H](CCCCNC(=O)COCCOCCNC(=O)COCCOCCNC(=O)CC[C@H](NC(=O)[C@H]1CC[C@H](CNC(=O)CCCCCCCCCCCCCCCCCCC(=O)O)CC1)C(=O)O)NC(=O)CNC(=O)[C@@H]1CCCN1C(=O)[C@H](Cc1ccc(O)cc1)NC(=O)[C@@H](NC(=O)[C@@H]1CCCN1C(=O)[C@H](CCC(=O)O)NC(=O)[C@H](CC(C)C)NC(=O)[C@@H]1CCCN1)C(C)C)[C@@H](C)O)C(=O)N[C@@H](CC(N)=O)C(=O)N[C@@H](CC(C)C)C(=O)N[C@@H](CC(C)C)C(=O)N[C@H](C(=O)N[C@@H](CCCNC(=N)N)C(=O)N[C@@H](CCC(N)=O)C(=O)N[C@@H](CCCNC(=N)N)C(=O)N[C@@H](Cc1ccc(O)cc1)C(N)=O)[C@@H](C)O [SEQ ID NO: 39, N-epsilon10-[2-(2-{2-[2-(2-{2-[(S)-4-Carboxy-4-({trans-4-[(19-carboxynonadecanoylamino)methyl]cyclohexanecarbonyl}amino)butyrylamino]-ethoxy}ethoxy)acetylamino]ethoxy}ethoxy)acetyl][Lys10,Leu17,Leu30,Gln34]hPP2-36] (H-PLEPVYPGK([AEEA-AEEA-γGlu-Trx-C20 diacid])NATPEQLAQYAADLRRYINLLTRQRY-NH2; N-terminus and C-terminus assumed)
half-life (in vivo, 4 nmol/kg): 32 h

CC[C@H](C)[C@H](NC(=O)[C@H](Cc1ccc(O)cc1)NC(=O)[C@H](CCCNC(=N)N)NC(=O)[C@H](CCCNC(=N)N)NC(=O)[C@H](CC(C)C)NC(=O)[C@H](CC(=O)O)NC(=O)[C@H](C)NC(=O)[C@H](C)NC(=O)[C@H](Cc1ccc(O)cc1)NC(=O)[C@H](CCC(N)=O)NC(=O)[C@H](C)NC(=O)[C@H](CCSC)NC(=O)[C@H](CCC(N)=O)NC(=O)[C@H](CCC(=O)O)NC(=O)[C@@H]1CCCN1C(=O)[C@H](CCCCNC(=O)COCCOCCNC(=O)COCCOCCNC(=O)CC[C@H](NC(=O)CCCCCCCCCCCCCCCCC(=O)O)C(=O)O)NC(=O)[C@H](C)NC(=O)[C@H](CC(N)=O)NC(=O)[C@H](CC(=O)O)NC(=O)CNC(=O)[C@@H]1CCCN1C(=O)[C@H](Cc1ccc(O)cc1)NC(=O)[C@@H](NC(=O)[C@@H]1CCCN1C(=O)[C@H](CCC(=O)O)NC(=O)[C@H](CC(C)C)NC(=O)[C@@H]1CCCN1C(=O)[C@H](C)N)C(C)C)C(=O)N[C@@H](CC(N)=O)C(=O)N[C@@H](CCSC)C(=O)N[C@@H](CC(C)C)C(=O)N[C@H](C(=O)N[C@@H](CCCNC(=N)N)C(=O)N1CCC[C@H]1C(=O)N[C@@H](CCCNC(=N)N)C(=O)N[C@@H](Cc1ccc(O)cc1)C(N)=O)[C@@H](C)O [SEQ ID NO: 24, N-epsilon13-[2-(2-{2-[2-(2-{2-[(S)-4-Carboxy-4-(17-carboxyheptadecanoylamino)butyrylamino]ethoxy}ethoxy)acetylamino]-ethoxy}ethoxy)acetyl][Lys13]hPP(1-36)] (H-APLEPVYPGDNAK([AEEA-AEEA-γGlu-C18 diacid])PEQMAQYAADLRRYINMLTRPRY-NH2; N-terminus and C-terminus assumed)
half-life (20 nmol/kg): 3.5 h

Reference: patent US20110275559A1, “Long-Acting Y2 and/or Y4 Receptor Agonists” (Novo Nordisk A/S, priority 2008, published 2011)
